From ChEMBL document CHEMBL2440042, “Anti-proliferative activity of hydnocarpin, a natural lignan, is associated with the suppression of Wnt/β-catenin signaling pathway in colon cancer cells” (Bioorg Med Chem Lett, 2013)
The source made the active and inactive calls. The rule behind the calls is not given here.

What was measured:
[1] = tested on: SW480; test: Inhibition of Wnt/beta-catenin signaling pathway in human SW480 cells after 24 hrs by TOPflash luciferase reporter gene assay relative to vehicle-treated control; type: cell-based
[2] = tested on: SW480; test: Effect on total beta-catenin protein level in human SW480 cells at 5 to 20 uM after 12 to 24 hrs by Western blotting analysis relative to vehicle-treated control; type: functional, cell-based
[3] = tested on: SW480; test: Inhibition of Wnt/beta-catenin signaling pathway in human SW480 cells assessed as dvl1 protein expression at 20 uM after 12 hrs by Western blotting analysis relative to vehicle-treated control
[4] = tested on: SW480; test: Inhibition of Wnt/beta-catenin signaling pathway in human SW480 cells assessed as beta-catenin protein expression at 5 uM after 24 hrs by Immunoblotting analysis relative to vehicle-treated control
[5] = tested on: SW480; test: Inhibition of Wnt/beta-catenin signaling pathway in human SW480 cells assessed as Axin1 protein expression at 10 uM after 12 hrs by Western blotting analysis relative to vehicle-treated control
[6] = tested on: SW480; test: Inhibition of Wnt/beta-catenin signaling pathway in human SW480 cells assessed as dvl3 protein expression at 5 uM after 12 hrs by Western blotting analysis relative to vehicle-treated control
[7] = tested on: SW480; test: Growth inhibition in human SW480 cells at 1 to 20 uM after 72 hrs by SRB assay in presence of axin1 siRNA; type: functional, cell-based
[8] = tested on: SW480; test: Inhibition of Wnt/beta-catenin signaling pathway in human SW480 cells assessed as beta-catenin protein expression at 20 uM after 24 hrs by Western blotting analysis relative to vehicle-treated control
[9] = tested on: SW480; test: Inhibition of Wnt/beta-catenin signaling pathway in human SW480 cells assessed as Axin1 protein expression at 10 uM after 24 hrs by Immunoblotting analysis relative to vehicle-treated control
[10] = tested on: SW480; test: Inhibition of Wnt/beta-catenin signaling pathway in human SW480 cells assessed as Axin2 protein expression at 5 uM after 24 hrs by Immunoblotting analysis relative to vehicle-treated control
[11] = tested on: SW480; test: Inhibition of Wnt/beta-catenin signaling pathway in human SW480 cells assessed as dvl2 protein expression at 10 uM after 24 hrs by Western blotting analysis relative to vehicle-treated control
[12] = tested on: SW480; test: Inhibition of Wnt/beta-catenin signaling pathway in human SW480 cells assessed as dvl2 protein expression at 20 uM after 24 hrs by Western blotting analysis relative to vehicle-treated control
[13] = tested on: SW480; test: Inhibition of Wnt/beta-catenin signaling pathway in human SW480 cells assessed as phosphorylated (S45) beta-catenin protein expression at 10 uM after 24 hrs by Western blotting analysis relative to vehicle-treated control
[14] = tested on: SW480; test: Inhibition of Wnt/beta-catenin signaling pathway in human SW480 cells assessed as Axin2 protein expression at 10 uM after 24 hrs by Western blotting analysis relative to vehicle-treated control
[15] = tested on: SW480; test: Inhibition of Wnt/beta-catenin signaling pathway in human SW480 cells assessed as dvl2 protein expression at 5 uM after 24 hrs by Western blotting analysis relative to vehicle-treated control
[16] = tested on: SW480; test: Inhibition of Wnt/beta-catenin signaling pathway in human SW480 cells assessed as dvl3 protein expression at 20 uM after 24 hrs by Western blotting analysis relative to vehicle-treated control
[17] = tested on: SW480; test: Inhibition of Wnt/beta-catenin signaling pathway in human SW480 cells assessed as CK1-alpha protein expression at 20 uM after 24 hrs by Western blotting analysis relative to vehicle-treated control
[18] = tested on: SW480; test: Inhibition of Wnt/beta-catenin signaling pathway in human SW480 cells assessed as Axin1 protein expression at 20 uM after 24 hrs by Western blotting analysis relative to vehicle-treated control
[19] = tested on: SW480; test: Inhibition of Wnt/beta-catenin signaling pathway in human SW480 cells assessed as beta-catenin protein expression at 10 uM after 12 hrs by Western blotting analysis relative to vehicle-treated control
[20] = tested on: SW480; test: Antiproliferative activity against human SW480 cells assessed as growth inhibition after 72 hrs by SRB assay; type: functional, cell-based; conditions: SW480, 72 h
[21] = tested on: SW480; test: Inhibition of Wnt/beta-catenin signaling pathway in human SW480 cells assessed as GSK3-beta protein expression at 20 uM after 24 hrs by Western blotting analysis relative to vehicle-treated control
[22] = tested on: SW480; test: Inhibition of Wnt/beta-catenin signaling pathway in human SW480 cells assessed as GSK3-beta protein expression at 5 uM after 24 hrs by Western blotting analysis relative to vehicle-treated control
[23] = tested on: SW480; test: Inhibition of Wnt/beta-catenin signaling pathway in human SW480 cells assessed as dvl1 protein expression at 5 uM after 12 hrs by Western blotting analysis relative to vehicle-treated control
[24] = tested on: SW480; test: Inhibition of Wnt/beta-catenin signaling pathway in human SW480 cells assessed as CK1-alpha protein expression at 10 uM after 24 hrs by Western blotting analysis relative to vehicle-treated control
[25] = tested on: SW480; test: Inhibition of Wnt/beta-catenin signaling pathway in human SW480 cells assessed as dvl1 protein expression at 20 uM after 24 hrs by Western blotting analysis relative to vehicle-treated control
[26] = tested on: SW480; test: Inhibition of Wnt/beta-catenin signaling pathway in human SW480 cells assessed as beta-catenin protein expression at 10 uM after 24 hrs by Immunoblotting analysis relative to vehicle-treated control
[27] = tested on: SW480; test: Inhibition of Wnt/beta-catenin signaling pathway in human SW480 cells assessed as GSK3-beta protein expression at 20 uM after 12 hrs by Western blotting analysis relative to vehicle-treated control
[28] = tested on: SW480; test: Inhibition of Wnt/beta-catenin signaling pathway in human SW480 cells assessed as dvl1 protein expression at 10 uM after 24 hrs by Western blotting analysis relative to vehicle-treated control
[29] = tested on: SW480; test: Inhibition of Wnt/beta-catenin signaling pathway in human SW480 cells assessed as increase in phosphorylation of beta-catenin at Ser45 at 10 uM after 12 hrs by Western blotting analysis relative to vehicle-treated control
[30] = tested on: SW480; test: Inhibition of Wnt/beta-catenin signaling pathway in human SW480 cells assessed as Axin2 protein expression at 5 uM after 12 hrs by Western blotting analysis relative to vehicle-treated control
[31] = tested on: SW480; test: Inhibition of Wnt/beta-catenin signaling pathway in human SW480 cells assessed as dvl3 protein expression at 5 uM after 24 hrs by Western blotting analysis relative to vehicle-treated control
[32] = tested on: SW480; test: Inhibition of Wnt/beta-catenin signaling pathway in human SW480 cells assessed as GSK3-beta protein expression at 10 uM after 12 hrs by Western blotting analysis relative to vehicle-treated control
[33] = tested on: SW480; test: Inhibition of Wnt/beta-catenin signaling pathway in human SW480 cells assessed as Axin1 protein expression at 20 uM after 12 hrs by Western blotting analysis relative to vehicle-treated control
[34] = tested on: SW480; test: Inhibition of Wnt/beta-catenin signaling pathway in human SW480 cells assessed as dvl1 protein expression at 5 uM after 24 hrs by Western blotting analysis relative to vehicle-treated control
[35] = tested on: SW480; test: Inhibition of Wnt/beta-catenin signaling pathway in human SW480 cells assessed as Axin1 protein expression at 5 uM after 24 hrs by Western blotting analysis relative to vehicle-treated control

COc1cc([C@H]2Oc3ccc(-c4cc(=O)c5c(O)cc(O)cc5o4)cc3O[C@@H]2CO)ccc1O (relative stereo)
inhibition [1]: Dose-dependent effect
Activity [2]: inactive
fold change (FC) [3]: 1.1
fold change (FC) [4]: 0.8
fold change (FC) [5]: 2.2
fold change (FC) [6]: 1
growth inhibition (GI) [7]: inactive
fold change (FC) [8]: 0.7
fold change (FC) [9]: 1.5
fold change (FC) [10]: 1
fold change (FC) [11]: 1.2
fold change (FC) [12]: 1.2
fold change (FC) [13]: 2.1
fold change (FC) [14]: 3.2
fold change (FC) [15]: 1.2
fold change (FC) [16]: 1.1
fold change (FC) [17]: 1.1
fold change (FC) [18]: 4.2
fold change (FC) [19]: 0.7
IC50 [20]: 20.3 µM
fold change (FC) [21]: 1
fold change (FC) [22]: 1.1
fold change (FC) [23]: 1.2
fold change (FC) [24]: 1.2
fold change (FC) [25]: 1.2
fold change (FC) [26]: 0.7
fold change (FC) [27]: 0.9
fold change (FC) [28]: 1
fold change (FC) [29]: 3.6
fold change (FC) [30]: 1
fold change (FC) [31]: 1.2
fold change (FC) [32]: 0.8
fold change (FC) [33]: 2.7
fold change (FC) [34]: 1
fold change (FC) [35]: 1.7
